{"source": "paper PMC6017654", "about": "“Ionic Liquid-Promoted Synthesis of Novel Chromone-Pyrimidine Coupled Derivatives, Antimicrobial Analysis, Enzyme Assay, Docking Study and Toxicity Study” (Molecules : A Journal of Synthetic Chemistry and Natural …, 2018)", "key": {"[1]": {"test_system": "ergosterol biosynthesis in Candida albicans (NCIM-3471)", "test": "Ergosterol extraction and quantitation assay (UV sterol profile)", "format": "cell-based", "settings": "C. albicans NCIM3471; 6f 24 µg/mL, miconazole 25 µg/mL; 281.5 nm", "description": "Changes in this absorption pattern are therefore indicative of interference in the synthetic pathway of ergosterol.\nA single Candida albicans (NCIM-3471) colony from an overnight Sabouraud dextrose agar plate culture was used to inoculate 50 mL of Sabouraud dextrose broth for control and for various concentrations of the molecules. The cultures were incubated for 16 hours and harvested by centrifugation at 2700 rpm (856× g) for five min. The net weight of the cell pellet was determined. Three mL of 25% alcoholic potassium hydroxide solution was added to each pellet and vortex mixed for one min. Cell suspensions were transferred to sterile borosilicate glass screw-cap tubes and were incubated in an 85 °C water bath for one hour. Following incubation, the tubes were allowed to cool. Sterols were then extracted by addition of a mixture of 1 mL of sterile distilled water and 3 mL of n-heptane followed by vigorous vortex mixing for 3 min. The heptane layer was transferred to a clean borosilicate glass screw-cap tube and stored at −20 °C. Prior to analysis, 0.6 mL aliquot of sterol extract was diluted five fold in 100% ethanol and scanned spectrophotometrically between 240 nm and 300 nm with a spectrophotometer (UV-Visible Spectrophotometer 2100, Thermo Fischer Scientific, Waltham, MA, USA). The presence of ergosterol and the late sterol intermediate 24(28)-dehydroergosterol (DHE) in the extracted sample results in a characteristic four-peaked curve. The absence of detectable ergosterol in extracts was indicated by a flat line.\nSterols were extracted from cells and spectral profiles between 240 and 300 nm were determined."}, "A. flavus": {"test_system": "A. flavus", "test": "In vitro antifungal activity (MIC100, CLSI/NCCLS)", "format": "cell-based", "settings": "Aspergillus flavus; A. fla.; average of three readings; read-out: MIC 100", "description": "(§1) The newly synthesized derivatives 4(a–f) and 6(a–f) were screened for their in vitro antifungal activity against different yeast and filamentous fungal pathogens. Minimum inhibitory concentration (MIC100) values for in vitro antifungal activity were determined by the methods recommended by National Committee for Clinical Laboratory Standards (NCCLS). Miconazole was used as standard drug. Dimethyl sulfoxide (DMSO) was used as solvent control.\n(§2) In vitro antifungal activity was determined as per CLSI (formerly, NCCLS) guidelines. […] The medium yeast nitrogen base was dissolved in phosphate buffer pH 7 and it was autoclaved at 110 °C for 10 min. With each set a growth control without the antifungal agent and solvent control DMSO were included. The fungal strains were freshly sub cultured on to Sabouraud dextrose agar (SDA) and incubated at 25 °C for 72 h. The fungal cells were suspended in sterile distilled water and diluted to get 10^5 cells/mL. Further, ten microlitres of the standardized suspension was inoculated onto the control plates and the media incorporated with the antifungal agents. The inoculated plates were incubated at 25 °C for 48 h. The readings were taken at the end of 48 h and 72 h. The MIC was the lowest concentration of drug preventing growth of macroscopically visible colonies on drug containing plates when there was visible growth on the drug free control plates."}, "Fusarium oxysporum": {"test_system": "Fusarium oxysporum", "test": "In vitro antifungal activity (MIC100, CLSI/NCCLS)", "format": "cell-based", "settings": "F. oxy., average of three readings, read-out: MIC 100", "description": "as §1, §2"}, "Candida albicans": {"test_system": "Candida albicans", "test": "In vitro antifungal activity (MIC100, CLSI/NCCLS)", "format": "cell-based", "settings": "C. alb., average of three readings, read-out: MIC 100", "description": "as §1, §2"}, "Aspergillus niger": {"test_system": "Aspergillus niger", "test": "In vitro antifungal activity (MIC100, CLSI/NCCLS)", "format": "cell-based", "settings": "A. nig., average of three readings, read-out: MIC 100", "description": "as §1, §2"}, "Aspergillus fumigates": {"test_system": "Aspergillus fumigates", "test": "In vitro antifungal activity (MIC100, CLSI/NCCLS)", "format": "cell-based", "settings": "A. fum., average of three readings, read-out: MIC 100", "description": "as §1, §2"}, "Cryptococcus neoformans": {"test_system": "Cryptococcus neoformans", "test": "In vitro antifungal activity (MIC100, CLSI/NCCLS)", "format": "cell-based", "settings": "C. neo., average of three readings, read-out: MIC 100", "description": "as §1, §2"}, "Candida glabrata": {"test_system": "Candida glabrata", "test": "In vitro antifungal activity (MIC100, CLSI/NCCLS)", "format": "cell-based", "settings": "Nakaseomyces glabratus; C. glab.; average of three readings; read-out: MIC 100", "description": "as §1, §2"}, "[2]": {"test_system": "Escherichia coli SM1411 (an acrAB deficient derivative of 1411)", "test": "In vitro antibacterial activity (MIC100, two fold serial dilution, NCCLS)", "format": "cell-based", "settings": "24 h, read-out: MIC100", "description": "(§3) All the synthesized compounds 4(a–f) and 6(a–f) were screened for their in vitro antibacterial activity against Staphylococcus aureus (NCIM-2901), Escherichia coli 1411 (standard laboratory strains) and Escherichia coli SM1411 (an acrAB deficient derivative of 1411). Minimum inhibitory concentration (MIC100) values were determined using methods recommended by National Committee for Clinical Laboratory Standards (NCCLS). Dimethyl sulfoxide (DMSO) was used as solvent control.\n(§4) All the synthesized compounds 4(a–f) and 6(a–f) were screened for their in vitro antibacterial activity against Staphylococcus aureus (NCIM-2901) and Escherichia coli 1411 (standard laboratory strains) and Escherichia coli SM1411 (an acrAB deficient derivative of 1411). Minimum inhibitory concentration (MIC100) values were determined using the method recommended by National Committee for Clinical Laboratory Standards (NCCLS). In vitro antibacterial activities of the synthesized compounds 4(a–f) and 6(a–f) were tested in Nutrient Broth (NB) for Bacteria by the two fold serial dilution method. Seeded broth (broth containing microbial spores) was prepared in NB from 24 h old bacterial cultures on nutrient agar (Hi-media) at 37 ± 1 °C. The bacterial suspension was adjusted with sterile saline to a concentration of […]. The synthesized compounds and standard drug D-cycloserine were prepared by two fold serial dilutions to obtain the required concentrations. The tubes were incubated in BOD incubators at 37 ± 1 °C for bacteria. The MICs were recorded by visual observations after 24 h (for bacteria) of incubation."}, "Escherichia coli 1411": {"test_system": "Escherichia coli 1411", "test": "In vitro antibacterial activity (MIC100, two fold serial dilution, NCCLS)", "format": "cell-based", "settings": "Escherichia coli, 1411, 24 h, read-out: MIC100", "description": "as §3, §4"}, "[3]": {"test_system": "Staphylococcus aureus (NCIM-2901)", "test": "In vitro antibacterial activity (MIC100, two fold serial dilution, NCCLS)", "format": "cell-based", "settings": "Staphylococcus aureus, NCIM2901, 24 h, read-out: MIC100, S. aureus NCIM-2901, average of three readings", "description": "as §3, §4"}, "[4]": {"test": "In vitro cytotoxicity, Sulforhodamine B (SRB) assay", "format": "cell-based, human", "settings": "human, range 80 to 0.55 μg/mL", "description": "(§5) Toxicity scrutiny of synthesized compounds at the early phase of research paves the way to clinical trials and reduces the failure of potential therapeutics at later stages of clinical trials. To scrutinize the safety and selectivity of antimicrobial activity of the synthesized compounds, the compounds 6c and 6f were appraised for their toxicity against HeLa (a human cervical cancer cell line) and PC-3 (human prostate cancer cell line) by the Sulforhodamine B (SRB) assay using adriamycin as a standard drug.\n(§6) The images were captured using an Eclipse Ti-S Inverted Research Microscope (Nikon, Tokyo, Japan). Image processing software used was NIS-Elements."}, "[5]": {"test_system": "HeLa (human cervical cancer cell line)", "test": "In vitro cytotoxicity, Sulforhodamine B (SRB) assay", "format": "cell-based", "settings": "up to 80 µg/mL", "description": "as §5, §6"}, "Swiss albino mice": {"test_system": "Swiss albino mice", "test": "In vivo acute oral toxicity study and gross behavioral study (OECD guideline No. 425)", "description": "The in vivo acute oral toxicity and gross behavioral study results of the newly synthesized compounds 6c and 6f are as listed in Table 12 [26].\nEach group, consisting of six Swiss albino mice (18–22 gm weight, overnight fasted), were kept in colony cage at 25 ± 2 °C with 55% relative humidity and 12 h of light and dark cycle. A specified dose of 100, 250, 500, 750, 1000, 1500 and 2000 mg/kg body weight of mice was administered orally as a single dose. The acute toxic symptoms and the behavioral changes produced by the test compounds were observed continuously for 4 h periods at 8th, 12th and 24th h on set of toxic symptoms and the gross behavioral changes were also recorded. These animals were maintained for further 10 days with observation made daily. The in vivo acute oral toxicity study was carried out at animal house at the Y.B. Chavan College of Pharmacy, Aurangabad IAEC approval number CPCSEA/IAEC/P’col-52/2015-16/115 [26]."}, "DdlB from E.coli": {"target": "DdlB from E.coli (Escherichia coli, UniProt P07862)", "test": "D-Alanine-D-alanine ligase (DdlB) enzyme inhibition, malachite green method", "format": "biochemical", "settings": "37 °C, 30 min incubation, 5% DMSO", "description": "The key enzyme involved in the peptidoglycan biosynthesis is D-alanine-D-alanine ligase (Ddl), making it an important target for drug discovery. Inhibition of DdlB as an essential enzyme in either Gram-positive or Gram-negative organisms leads to the loss of cell shape and integrity followed by bacterial death. The synthesized derivatives 4(a–f) and 6(a–f) were tested for their inhibitory activity on DdlB from E.coli. The results are presented as IC50 values.\nThe D-Ala-adding activity of DdlB ligase was monitored by the detection of orthophosphate generated during the reaction based on the colorimetric malachite green method described by Walsh et al.. […] All the compounds were soluble in the assay mixture containing 5% DMSO. After 30 min of incubation, 100 µL Biomol reagent was added. After 5 min, absorbance was read at 650 nm. Residual activity was calculated with respect to a similar assay without inhibitor. To exclude possible non-specific (promiscuous) inhibitors, representative compounds 4(a–f) and 6(a–f) were also tested in the presence of Tween (0.003%), Triton X-114 (0.005%), and SDS (420 µM), as described by McGovern et al.. No significant differences were found when compared to measurements without detergents."}}, "note": "pIC50: −log10 of the molar value.", "data": [{"smiles": "Clc1ccc(COC(Cn2ccnc2)c2ccc(Cl)cc2Cl)c(Cl)c1", "note": "(centres unmarked) [Miconazole, reference compound]", "values": [{"measurement": "ergosterol peak in UV sterol profile at the MIC value", "setting": "[1]", "result": "inhibition of ergosterol"}, {"measurement": "MIC", "setting": "A. flavus", "result": 12, "unit": "mg/L"}, {"measurement": "MIC", "setting": "Fusarium oxysporum", "result": 25, "unit": "mg/L"}, {"measurement": "MIC", "setting": "Candida albicans", "result": 25, "unit": "mg/L"}, {"measurement": "MIC", "setting": "Aspergillus niger", "result": 12, "unit": "mg/L"}, {"measurement": "MIC", "setting": "Aspergillus fumigates", "result": 35, "unit": "mg/L"}, {"measurement": "MIC", "setting": "Cryptococcus neoformans", "result": 12, "unit": "mg/L"}, {"measurement": "MIC", "setting": "Candida glabrata", "result": 25, "unit": "mg/L"}]}, {"smiles": "CC1=C(C(=O)NN)C(c2coc3ccc(F)cc3c2=O)NC(=O)N1", "note": "(centres unmarked) [Compound 6c, 4-(6-Fluoro-4-oxo-4H-chromen-3-yl)-6-methyl-2-oxo-1,2,3,4-tetrahydropyrimidine-5-carbohydrazide]", "values": [{"measurement": "MIC", "setting": "[2]", "result": 14, "unit": "mg/L"}, {"measurement": "MIC", "setting": "Escherichia coli 1411", "result": 14, "unit": "mg/L"}, {"measurement": "MIC", "setting": "[3]", "result": 32, "unit": "mg/L"}, {"measurement": "GI50", "setting": "[4]; HeLa cells, SRB assay", "result": "> 80", "unit": "mg/L"}, {"measurement": "GI50", "setting": "[4]; PC-3 cells", "result": "> 80", "unit": "mg/L"}, {"measurement": "cell inhibition", "setting": "[5]", "result": "cell inhibition did not occur"}, {"measurement": "MIC", "setting": "A. flavus", "result": 42, "unit": "mg/L"}, {"measurement": "MIC", "setting": "Fusarium oxysporum", "result": 58, "unit": "mg/L"}, {"measurement": "MIC", "setting": "Candida albicans", "result": 52, "unit": "mg/L"}, {"measurement": "MIC", "setting": "Aspergillus niger", "result": 40, "unit": "mg/L"}, {"measurement": "MIC", "setting": "Aspergillus fumigates", "result": 60, "unit": "mg/L"}, {"measurement": "MIC", "setting": "Cryptococcus neoformans", "result": 40, "unit": "mg/L"}, {"measurement": "MIC", "setting": "Candida glabrata", "result": 52, "unit": "mg/L"}, {"measurement": "No. of Deaths", "setting": "Swiss albino mice; Swiss albino mice, single oral dose 100 to 2000 mg/kg", "result": "N"}, {"measurement": "lethal dose", "setting": "Swiss albino mice; mice, oral, single dose, no mortality up to 2000 mg/kg", "result": "above 2000 mg/kg body weight"}, {"measurement": "pIC50", "setting": "DdlB from E.coli", "result": 3.97}]}, {"smiles": "COc1cccc2c1C(=O)c1c(O)c3c(c(O)c1C2=O)C[C@@](O)(C(=O)CO)C[C@@H]3O[C@H]1C[C@H](N)[C@H](O)[C@H](C)O1", "note": "[Adriamycin, reference compound]", "values": [{"measurement": "GI50", "setting": "[4]; HeLa cells, SRB assay", "result": 0.5, "unit": "mg/L"}, {"measurement": "GI50", "setting": "[4]; PC-3 cells", "result": 0.5, "unit": "mg/L"}]}]}
